Test [1] has as its system Candida albicans IFO 0583. The experiment in a line: Paper disc agar diffusion, growth inhibition zone, Candida albicans IFO 0583. It is filed as cell-based. To be noted: Table 5, Medium A, 28° C., two-day culture, 1000 μ/ml, 8 mm disc; for zone of inhibition at 1000 µg/mL: Candida albicans, IFO0583, 48 h, read-out: Diameter of growth-inhibition zone. How it is done: Evaluation of the antifungal activities of the compound of formula (I) was conducted by the following method: a sheet of filter paper disc (manufactured by Toyo Seisakusho, 8 mm in diameter) soaked in a […] solution of a compound of formula (I) in methanol was placed on an agar plate containing various fungi, which was incubated at 28° C. for two days, and the diameter of the growth inhibition zone around the filter paper disc was measured. The following culture media were used: A: yeast nitrogen base agar medium (pH 7.0) B: Sabouraud agar medium
cpd. No. (Medium A, 28° C., two-day culture)
(A growth-free zone around the sample is the usual read-out of agar diffusion tests.)

For a further test, the system named is Candida albicans. Put plainly: Protective effect against Candida albicans infection in mice. It is filed as in vivo, Crj:CDF1 mice. To be noted: 168 h, minimum lethal dose of Candida albicans iv, drug once immediately after infection, survival 7 days after infection. The source says: Test Method: Five-week old Crj:CDF1 mice were inoculated with the minimum lethal dose of Candida albicans intravenously. The test drug was given once immediately after infection. The effectiveness of the drug was expressed in ED50 values calculated by the Reed and Muench method from the survival rate 7 days after infection.

The zone of inhibition is the size of the clear area around the sample on an inoculated plate. By ED50 is commonly meant the midpoint of the dose-response relation. High values mean a need for a large dose, low ones an effect at a small dose. `CCN(C)S(=O)(=O)[C@H](C)[C@](O)(Cn1cncn1)c1ccc(F)cc1F` [Compound 48, N-ethyl-N-methyl[(2R,3R)-3-(2,4-difluorophenyl)-3-hydroxy-4-(1H-1,2,4-triazol-1-yl)-2-butane]sulfonamide]: the zone of inhibition at 1000 µg/mL in test [1] came to 48 mm. Besides, in the test with Candida albicans (po), the ED50 came to 11.3 mg/kg.
For `C[C@@H](NS(C)(=O)=O)[C@](O)(Cn1cncn1)c1ccc(F)cc1F` [Compound 49, N-[(2R,3R)-3-(2,4-difluorophenyl)-3-hydroxy-4-(1H-1,2,4-triazol-1-yl)-2-butyl]methanesulfonamide], in that order: 30 mm and 1.8 mg/kg.
The corresponding values for `C[C@H]([C@](O)(Cn1cncn1)c1ccc(F)cc1F)S(=O)(=O)N1CCN(c2ccc(F)cc2)CC1` [Compound 71, 4-[(2R,3R)-3-(2,4-difluorophenyl)-3-hydroxy-4-(1H-1,2,4-triazol-1-yl)-2-butanesulfonyl]-1(4-fluorophenyl)piperazine] are 47 mm and 8 mg/kg.
Turning to `C[C@H]([C@](O)(Cn1cncn1)c1ccc(F)cc1F)S(=O)(=O)N(C)CC(F)(F)F` [Compound 46, N-methyl-N-(2,2,2-trifluoroethyl)-[(2R,3R)-3-(2,4-difluorophenyl)-3-hydroxy-4-(1H-1,2,4-triazol-1-yl)-2-butane]sulfonamide], the zone of inhibition at 1000 µg/mL in test [1] amounted to 45 mm. The molecule also had a 50% effective dose (ED50) in the test on Candida albicans (po) of 8 mg/kg.
For `C[C@H]([C@](O)(Cn1cncn1)c1ccc(F)cc1F)S(=O)(=O)N(C)Cc1cccnc1` [Compound 64, N-(3-pyridylmethyl)-N-methyl-[(2R,3R)-3-(2,4-difluorophenyl)-3-hydroxy-4-(1H-1,2,4-triazol-1-yl)-2-butane]sulfonamide], in that order: 40 mm and 2.8 mg/kg.
With `CNS(=O)(=O)[C@H](C)[C@](O)(Cn1cncn1)c1ccc(F)cc1F` [Compound 12, N-methyl-[(2R,3R)-3-(2,4-difluorophenyl)-3-hydroxy-4(1H -1,2,4-triazol-1-yl)-2-butane]sulfonamide], the zone of inhibition at 1000 µg/mL in test [1] stood at 37 mm. In addition, in the test with Candida albicans (po), it took a dose of 5 mg/kg to reach the 50% effect level (ED50).
For `C[C@H]([C@](O)(Cn1cncn1)c1ccc(F)cc1F)S(=O)(=O)NCC(F)(F)F` [Compound 39, N-(2,2,2-trifluoroethyl)-[(2R,3R)-3-(2,4-difluorophenyl)-3-hydroxy-4-(1H-1,2,4-triazol-1-yl)-2-butane]sulfonamide], in that order: 40 mm and 8 mg/kg.
With `C[C@H]([C@](O)(Cn1cncn1)c1ccc(F)cc1F)S(=O)(=O)N(C)Cc1nccs1` [Compound 78], the zone of inhibition at 1000 µg/mL in test [1] was found to be 40 mm. Moreover, it took a dose of 8 mg/kg to reach the 50% effect level with Candida albicans (po) (ED50).
Regarding `C[C@H]([C@](O)(Cn1cncn1)c1ccc(F)cc1F)S(=O)(=O)NC(c1ccccc1)c1ccccc1` [Compound 59, N-diphenylmethyl-[(2R,3R)-3-(2,4-difluorophenyl)-3-hydroxy-4-(1H-1,2,4-triazol-1-yl)-2-butane]sulfonamide], the zone of inhibition at 1000 µg/mL in test [1] came out at 30 mm. This molecule showed an ED50 in the test on Candida albicans (po) of 11.3 mg/kg.
For `C[C@H]([C@](O)(Cn1cncn1)c1ccc(F)cc1F)S(=O)(=O)N(C)Cc1ccncc1` [Compound 76], in that order: 40 mm and 8 mg/kg.
On to `C[C@H]([C@](O)(Cn1cncn1)c1ccc(F)cc1F)S(=O)(=O)NC1CC1` [Compound 10, N-cyclopropyl-[(2R,3R)-3-(2,4-difluorophenyl)-3-hydroxy-4-(1H-1,2,4-triazol-1-yl)-2-butane]sulfonamide], for which the zone of inhibition at 1000 µg/mL in test [1] is 35 mm. Besides, the ED50 with Candida albicans (po) came out at 7.07 mg/kg; in the test on Candida albicans (sc), 14.1 mg/kg.
As to `C[C@H]([C@](O)(Cn1cncn1)c1ccc(F)cc1F)S(=O)(=O)N1CCN(c2ccc(OCC(F)(F)F)cc2)CC1` [Compound 70, 4-[(2R,3R)-3-(2,4-difluorophenyl)-3-hydroxy-4-(1H-1,2,4-triazol-1-yl)-2-butanesulfonyl]-1-[4-(2,2,2-trifluoroethoxy)phenyl]piperazine], the zone of inhibition at 1000 µg/mL in test [1] was 42 mm. Besides, in the test on Candida albicans (po), the 50% effect level (ED50) was put at a dose of 8 mg/kg.
The corresponding values for `C[C@@H](NS(=O)(=O)c1ccc([N+](=O)[O-])cc1)[C@](O)(Cn1cncn1)c1ccc(F)cc1F` [Compound 51] are 38 mm and 8 mg/kg.
The corresponding values for `C[C@H]([C@](O)(Cn1cncn1)c1ccc(F)cc1F)S(=O)(=O)N(C)Cc1nccn1C` [Compound 75] are 34 mm and 8 mg/kg.
The corresponding values for `CCCNS(=O)(=O)[C@H](C)[C@](O)(Cn1cncn1)c1ccc(F)cc1F` [Compound 16, N-propyl-[(2R,3R)-3-(2,4-difluorophenyl)-3-hydroxy-4-(1H-1,2,4-triazol-1-yl)-2butane]sulfonamide] are 40 mm and 5 mg/kg.
As for `C[C@H]([C@](O)(Cn1cncn1)c1ccc(F)cc1F)S(=O)(=O)NC1CCCCC1` [Compound 6, N-cyclohexyl-[(2R,3R)-3(2,4-difluorophenyl)-3-hydroxy-4-(1H-1,2,4-triazol-1-yl)-2-butane]sulfonamide], in test [1], the zone of inhibition at 1000 µg/mL came to 40 mm. Moreover, in the test with Candida albicans (po), it took a dose of 7.07 mg/kg to reach the 50% effect level (ED50).
On to `C[C@H]([C@](O)(Cn1cncn1)c1ccc(F)cc1F)S(=O)(=O)N1CCOCC1` [Compound 8, 4-[(2R,3R)-3-(2,4-difluorophenyl)-3-hydroxy-4-(1H-1,2,4-triazol-1-yl)-2-butylsulfonyl]morpholine], for which the zone of inhibition at 1000 µg/mL in test [1] worked out at 40 mm. Further, the median effective dose (ED50) with Candida albicans (po) is 20 mg/kg; in the test with Candida albicans (sc), 28.3 mg/kg.
For the molecule `CCC(C)n1ncn(-c2ccc(N3C=CN(S(=O)(=O)[C@H](C)[C@](O)(Cn4cncn4)c4ccc(F)cc4F)CC3)cc2)c1=O` (stereo partly drawn) [Compound 43, 1-[4-[2-(2-butyl)-2,3-dihydro-3-oxo-4H-1,2,4-triazol-4-yl]phenyl]-4-[(2R,3R)-3-(2,4-difluorophenyl)-3-hydroxy-4-(1H-1,2,4-triazol-1-yl)-2-butanesulfonyl]-1,2,3,4-tetrahydropyrazine], the zone of inhibition at 1000 µg/mL in test [1] amounted to 35 mm.
Still for that read-out and setting: for `CC(=O)Nc1nc(C)c(S(=O)(=O)N(C)[C@H](C)[C@](O)(Cn2cncn2)c2ccc(F)cc2F)s1` [Compound 89] the value was 35 mm; for `CC(=C(Cn1cncn1)c1ccc(F)cc1F)S(=O)(=O)N(C)C` (single isomer, unassigned) [Compound 34, N,N-dimethyl-3-(2,4-difluorophenyl)-4-(1H-1,2,4-triazol-1-yl)-2-butene-2-sufonamide], 15 mm; for `C[C@H]([C@](O)(Cn1cncn1)c1ccc(F)cc1F)S(=O)(=O)N1CCN(Cc2nncn2C)CC1` [Compound 26, 1-[(2R,3R)-3-(2,4-difluorophenyl)-3-hydroxy-4-(1H-1,2,4-triazol-1-yl)-2-butylsulfonyl]-4-(4-methyl-4H-1,2,4-triazol-3-ylmethyl) piperazine], 20 mm.
Same read-out and setting: for `C[C@@H](NS(=O)(=O)c1ccc(F)cc1F)[C@](O)(Cn1cncn1)c1ccc(F)cc1F` [Compound 50] the value was 45 mm.
The same measure, in the same setting: for `CCCCCCCCCCCCN(C)S(=O)(=O)[C@H](C)[C@](O)(Cn1cncn1)c1ccc(F)cc1F` [Compound 61, N-dodecyl-N-methyl-[(2R,3R)-3-(2,4-difluorophenyl)-3-hydroxy-4-(1H-1,2,4-triazol-1-yl)-2-butane]sulfonamide] the value was 18 mm.
`C[C@H]([C@](O)(Cn1cncn1)c1ccc(F)cc1F)S(=O)(=O)N(C)CCc1nnc(S(C)(=O)=O)s1` [Compound 84]: in test [1], the zone of inhibition at 1000 µg/mL turned out to be 23 mm.
Still for that read-out and setting: for `CSc1nnc(CCN(C)S(=O)(=O)[C@H](C)[C@](O)(Cn2cncn2)c2ccc(F)cc2F)s1` [Compound 83] the value was 40 mm; for `C[C@H]([C@](O)(Cn1cncn1)c1ccc(F)cc1F)S(=O)(=O)N(C)c1ncccn1` [Compound 77, N-methyl-N-(2-pyrimidinyl)-[(2R,3R)-3-(2,4-difluorophenyl)-3-hydroxy-4-(1H-1,2,4-triazol-1-yl)-2-butane]sulfonamide], 40 mm.
Regarding `C[C@H]([C@](O)(Cn1cncn1)c1ccc(F)cc1F)S(=O)(=O)N(C)C/C=C\C#CC(C)(C)C` [Compound 69], in test [1], the zone of inhibition at 1000 µg/mL is 42 mm.
Regarding `CSc1nnc(CN(C)S(=O)(=O)[C@H](C)[C@](O)(Cn2cncn2)c2ccc(F)cc2F)s1` [Compound 82], in test [1], the zone of inhibition at 1000 µg/mL came out at 40 mm.
Same read-out and setting: the figure for `C[C@@H](N1CCCS1(=O)=O)[C@](O)(Cn1cncn1)c1ccc(F)cc1F` [Compound 57] is 35 mm.
Turning to `CC(=C(Cn1cncn1)c1ccc(F)cc1F)S(=O)(=O)N1CCN(c2ccccc2)CC1` (single isomer, unassigned) [Compound 31, 1-[3-(2,4-difluorophenyl)-4-(1H-1,2,4-triazol-1-yl)-2-buten-2-ylsulfonyl]-4-phenylpiperazine], the “Diameter of growth-inhibition zone” value in test [1] came to 35 mm.
Take `COc1ccc(N2CCN(S(=O)(=O)[C@H](C)[C@](O)(Cn3cncn3)c3ccc(F)cc3F)CC2)cc1` [Compound 72, 4-[(2R,3R)-3-(2,4-difluorophenyl)-3-hydroxy-4-(1H-1,2,4-triazol-1-yl)-2-butanesulfonyl]-1-(4-methoxyphenyl)piperazine]: in test [1], the zone of inhibition at 1000 µg/mL was determined as 48 mm.
As to `C[C@@H](NS(=O)(=O)c1cccs1)[C@](O)(Cn1cncn1)c1ccc(F)cc1F` [Compound 87], the zone of inhibition at 1000 µg/mL in test [1] is 38 mm.
